Target: T1, Solute carrier family 12 member 5 (Homo sapiens, UniProt Q9H2X9)
T1 sequence (Q9H2X9 whole entry): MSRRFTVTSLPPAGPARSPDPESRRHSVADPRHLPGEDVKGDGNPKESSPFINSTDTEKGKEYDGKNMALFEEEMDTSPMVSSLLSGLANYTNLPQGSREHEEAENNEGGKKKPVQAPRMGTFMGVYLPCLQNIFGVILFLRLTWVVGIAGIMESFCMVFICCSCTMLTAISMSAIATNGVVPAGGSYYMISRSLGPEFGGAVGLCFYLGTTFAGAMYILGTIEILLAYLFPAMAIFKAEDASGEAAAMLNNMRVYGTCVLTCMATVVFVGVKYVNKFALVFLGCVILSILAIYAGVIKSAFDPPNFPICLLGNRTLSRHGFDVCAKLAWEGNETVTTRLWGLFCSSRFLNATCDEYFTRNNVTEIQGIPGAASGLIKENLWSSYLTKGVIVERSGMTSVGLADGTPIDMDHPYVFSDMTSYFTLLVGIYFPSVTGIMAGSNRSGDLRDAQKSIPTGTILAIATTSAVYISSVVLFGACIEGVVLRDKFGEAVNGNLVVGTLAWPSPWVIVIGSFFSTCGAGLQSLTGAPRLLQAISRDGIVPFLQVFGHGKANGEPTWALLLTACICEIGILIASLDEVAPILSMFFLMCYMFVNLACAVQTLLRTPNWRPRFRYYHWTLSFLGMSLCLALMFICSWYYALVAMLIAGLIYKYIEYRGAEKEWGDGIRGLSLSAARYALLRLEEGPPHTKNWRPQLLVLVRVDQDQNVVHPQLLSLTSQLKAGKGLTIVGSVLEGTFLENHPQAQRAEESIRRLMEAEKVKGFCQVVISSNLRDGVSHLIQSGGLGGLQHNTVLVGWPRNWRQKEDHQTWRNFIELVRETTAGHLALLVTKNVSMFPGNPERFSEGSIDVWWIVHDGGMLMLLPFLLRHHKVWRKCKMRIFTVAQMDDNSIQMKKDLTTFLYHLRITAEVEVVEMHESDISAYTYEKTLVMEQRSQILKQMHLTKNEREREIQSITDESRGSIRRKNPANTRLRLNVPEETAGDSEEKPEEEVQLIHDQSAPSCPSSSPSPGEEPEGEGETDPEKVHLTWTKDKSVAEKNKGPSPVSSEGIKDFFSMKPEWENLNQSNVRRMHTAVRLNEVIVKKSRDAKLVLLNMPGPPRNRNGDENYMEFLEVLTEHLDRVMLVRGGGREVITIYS
Assay: KCC2 modulator potency by thallium flux, dose response, cell-based, HEK293 KCC2, FluoZin-2 fluorescence (AID 1736)
Settings: not given

How did the EC50 turn out when `COc1cccc(CNC(=O)CSc2ccc(-c3cccs3)nn2)c1` [MLS000621194] was run?
The EC50 was 34.2 µM.

With `O=C(C=Cc1ccccc1)CC(=O)c1ccccc1O` [MLS000627068] as the molecule, how does the EC50 read?
Its EC50 is 12.4 µM.

Which EC50 does the source give for `O=C(NCc1nc(-c2ccccc2)cs1)c1ccccc1` [MLS000661971] here?
Its EC50 is 7.64 µM.

Which EC50 does the source give for `CN(CC(=O)N1CCN(Cc2ccccc2)CC1)S(=O)(=O)c1cccc2nsnc12` [MLS000674627] here?
The EC50 was 0.953 µM.

How did the EC50 turn out when `O=C(CN(c1ccc2c(c1)OCCO2)S(=O)(=O)c1ccccc1)N1CCN(Cc2ccccc2)CC1` [MLS000693333] was run?
Its EC50 is 2.43 µM.

Which EC50 does the source give for `O=C(c1ccccc1SCc1ccc(F)cc1)N1CCOCC1` [MLS000712999] here?
The EC50 was 9 µM.

Which EC50 does the source give for `O=C(NC1CCCC1)C(c1ccncc1)N(Cc1ccco1)C(=O)c1ccc(-c2ccccc2)[nH]1` (centres undefined) [MLS000718066] here?
The EC50 was 6.36 µM.

With `O=C(CSc1ccc(-c2ccccc2)nn1)Nc1ccc2c(c1)OCCO2` [MLS000724887] as the molecule, how does the EC50 read?
The EC50 was 31 µM.

How did the EC50 turn out when `CC(=O)NCC1CCCN(c2nc3nonc3nc2N(C)Cc2ccccc2)C1` (centres undefined) [MLS000731683] was run?
Its EC50 is 1.69 µM.

With `CCc1cc(C(=O)N2CCCC(CNC(=O)c3ccc(-c4ccccc4)cc3)C2)no1` (centres undefined) [MLS000731765] as the molecule, how does the EC50 read?
Its EC50 is 4.25 µM.

For `CC(=O)NCCC(=O)N1CCCC(CNC(=O)c2ccc(-c3ccccc3)cc2)C1` (centres undefined) [MLS000733794], which EC50 is on record?
Its EC50 is 8.13 µM.

How did the EC50 turn out when `CSCCC(=O)N1CCCC(CNC(=O)c2ccc(-c3ccccc3)cc2)C1` (centres undefined) [MLS000733867] was run?
The EC50 was 5.16 µM.

`Cc1ccc(NC(=O)CCCSc2ccccc2)cc1S(=O)(=O)N1CCOCC1` [MLS000761060] was tested. Which EC50 did it give?
The EC50 was 408 µM.

How did the EC50 turn out when `O=C(NNc1nc(-c2ccc(F)cc2)cs1)c1ccccc1` [MLS000763429] was run?
Its EC50 is 0.806 µM.

With `COc1ccccc1NC(=S)NNC1=c2cc(Br)ccc2=NC1=O` [MLS000778253] as the molecule, how does the EC50 read?
Its EC50 is 0.363 µM.

With `O=C(NNc1nc(-c2ccccc2)cs1)c1cccs1` [MLS000858987] as the molecule, how does the EC50 read?
Its EC50 is 0.252 µM.

Which EC50 does the source give for `CCC(CC)NC(=O)CSc1nnc(-c2c[nH]c3ccccc23)o1` [MLS001017505] here?
The EC50 was 334 µM.

How did the EC50 turn out when `COc1ccc(N(CC(=O)Nc2cccc(C)c2C)S(=O)(=O)c2c(C)n[nH]c2C)cc1` [N-(2,3-dimethylphenyl)-2-[(3,5-dimethyl-1H-pyrazol-4-yl)sulfonyl-(4-methoxyphenyl)amino]ethanamide] was run?
Its EC50 is 15.7 µM.

With `Cc1csc(NC(=O)CSc2ccc(-c3ccccc3)nn2)n1` [N-(4-methyl-1,3-thiazol-2-yl)-2-(6-phenylpyridazin-3-yl)sulfanyl-ethanamide] as the molecule, how does the EC50 read?
The EC50 was 0.493 µM.

How did the EC50 turn out when `CC(=NNC(=O)c1ccc(Cl)c(Cl)c1)c1ccc(Br)s1` [N-[1-(5-bromo-2-thiophenyl)ethylideneamino]-3,4-dichlorobenzamide] was run?
Its EC50 is 0.48 µM.

For `O=C(NCCc1c[nH]c2ccccc12)c1cc(S(=O)(=O)N2CCCCC2)ccc1N1CCOCC1` [N-[2-(1H-indol-3-yl)ethyl]-2-morpholin-4-yl-5-piperidin-1-ylsulfonylbenzamide], which EC50 is on record?
The EC50 was 20.1 µM.

Which EC50 does the source give for `CC(C)(C)NC(=O)C(c1ccncc1)N(Cc1ccco1)C(=O)c1ccc(-c2ccccc2)[nH]1` (centres undefined) [N-[2-(tert-butylamino)-2-oxo-1-pyridin-4-ylethyl]-N-(furan-2-ylmethyl)-5-phenyl-1H-pyrrole-2-carboxamide] here?
Its EC50 is 26.6 µM.

Which EC50 does the source give for `CC(C)(C)NC(=O)C(c1cccs1)N(CC1CCCO1)C(=O)c1ccc(-c2ccccc2)[nH]1` (centres undefined) [N-[2-(tert-butylamino)-2-oxo-1-thiophen-2-ylethyl]-N-(2-oxolanylmethyl)-5-phenyl-1H-pyrrole-2-carboxamide] here?
Its EC50 is 1.93 µM.

For `O=C(NN1C(=O)/C(=C/c2nc3ccccc3[nH]2)SC1=S)c1ccccc1Cl` [N-{5-[1-(1H-Benzoimidazol-2-yl)-meth-(Z)-ylidene]-4-oxo-2-thioxo-thiazolidin-3-yl}-2-chloro-benzamide], which EC50 is on record?
The EC50 was 0.153 µM.

How did the EC50 turn out when `Cc1ccc2[nH]c(=O)c(CN(CCc3ccccc3)Cc3nnnn3CC3CCCO3)cc2c1` (centres undefined) [SMR000003177] was run?
The EC50 was 244 µM.

With `O=C(CSc1nnc(-c2c[nH]c3ccccc23)o1)N1CCCCC1` [SMR000003748] as the molecule, how does the EC50 read?
Its EC50 is 3.79 µM.

For `c1ccc(-c2nnc(Sc3ncnc4c3cnn4-c3ccccc3)[nH]2)cc1` [SMR000019566], which EC50 is on record?
Its EC50 is 12.3 µM.

How did the EC50 turn out when `CCOC(=O)c1sc(Nc2nc3c(OC)cccc3s2)nc1C` [SMR000027213] was run?
The EC50 was 155 µM.

How did the EC50 turn out when `CC(NNC(=O)c1ccc(Br)cc1)=C1C(=O)c2ccccc2C1=O` [SMR000116009] was run?
The EC50 was 1.56 µM.

With `O=C(CSc1nccc(=O)[nH]1)N1CCc2ccccc2C1` [SMR000124078] as the molecule, how does the EC50 read?
Its EC50 is 9.12 µM.

With `CC(C)NC(=S)NNC1=c2cc(C(C)C)ccc2=NC1=O` [SMR000242097] as the molecule, how does the EC50 read?
Its EC50 is 145 µM.

For `CN1/C(=C\C(=S)NC(=O)c2cccc(Br)c2)C(C)(C)c2ccccc21` [SMR000254682], which EC50 is on record?
The EC50 was 3.68 µM.

How did the EC50 turn out when `Cc1nc(SCc2ccc(F)cc2)c([N+](=O)[O-])[nH]1` [SMR000271028] was run?
Its EC50 is 878 µM.

`COC(=O)Cc1[nH]n(-c2nc3ccccc3s2)c(=O)c1C(C)=Nc1ccc(Cl)cc1` [methyl 2-[(4E)-1-(1,3-benzothiazol-2-yl)-4-[1-[(4-chlorophenyl)amino]ethylidene]-5-oxidanylidene-pyrazol-3-yl]ethanoate] was tested. Which EC50 did it give?
Its EC50 is 77.3 µM.

Same assay, conditions: inactive by the depositor's call

Which EC50 does the source give for `CN1C(C(=O)NCc2ccccc2)CC2Cn3c(nc4cc(Cl)c(Cl)cc43)C21` (centres undefined) [MLS000877509] here?
The EC50 was 64 µM.

`COc1ccc(N(CC(=O)Nc2ccc(C)c(C)c2)S(=O)(=O)c2c(C)n[nH]c2C)cc1` [SMR000027403] was tested. Which EC50 did it give?
The EC50 was 35.1 µM.

For `CCOC(=O)c1c(C)[nH]c(C)c1C(=O)CSc1nc(N)cc(N)n1` [SMR000063952], which EC50 is on record?
Its EC50 is 1.88 µM.

For `COc1ccc(CN(C(=O)c2ccc(-c3ccccc3)[nH]2)C(C(=O)NC(C)(C)C)c2ccncc2)cc1` (centres undefined) [SMR000279859], which EC50 is on record?
The EC50 was 34.4 µM.

`CC1=NN(C(=O)c2ccc(Br)cc2)C(O)(C(F)(F)OC(F)(F)F)C1` (centres undefined) [[5-[bis(fluoranyl)-(trifluoromethyloxy)methyl]-3-methyl-5-oxidanyl-4H-pyrazol-1-yl]-(4-bromophenyl)methanone] was tested. Which EC50 did it give?
The EC50 was 6.18 µM.

Reference: BindingDB's records for doi:10.7270/Q2Q52N1X (Vanderbilt Screening Center for GPCRs, Ion Channels and …, 2009)
